From PubChem BioAssay (NCI)
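Growth conditions: 96-well plates. Treatment: test compound, 48 hours, 5 concentrations. Analysis: linear interpolation between bracketing concentrations; unreached endpoints set to highest concentration. At the GI50, growth is halved. TGI: total growth inhibition.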 Where a SMILES comes first, the peptide text is derived from it. The star is where a group is joined. Boc = CC(C)(C)OC(=O)*; OBn = c1ccc(CO*)cc1; Bn = c1ccc(C*)cc1

Assays:
Assay in all cases: inhibition of tumour cell growth, NCI panel, 48 h
HCT-15 colon = test system: HCT-15 colon
OVCAR-4 ovarian = test system: OVCAR-4 ovarian
PC-3 prostate = test system: PC-3 prostate
SNB-75 CNS = test system: SNB-75 CNS
T-47D breast = test system: T-47D breast
UO-31 renal = test system: UO-31 renal
RXF 393 renal = test system: RXF 393 renal

Compound	TGI (HCT-15 colon) [µM]	TGI (OVCAR-4 ovarian) [µM]	TGI (PC-3 prostate) [µM]	TGI (SNB-75 CNS) [µM]	TGI (T-47D breast) [µM]	TGI (UO-31 renal) [µM]	TGI (RXF 393 renal) [µM]	GI50 (OVCAR-4 ovarian) [µM]	GI50 (PC-3 prostate) [µM]	GI50 (RXF 393 renal) [µM]	GI50 (SNB-75 CNS) [µM]	GI50 (T-47D breast) [µM]
COc1cc(/C=C/C(=O)OC[C@]23O[C@H]2[C@@H](OC2OC(C)C(O)C(O)C2O)C2C=CO[C@@H](OC4OC(CO)C(O)C(O)C4O)C23)ccc1O (stereo partly drawn)	> 100	> 100	> 100	> 100	> 100	> 100						
CCCCOP(=O)(OCCCC)C(NS(=O)(=O)c1ccccc1)(C(=O)OCC)C(F)(F)F (stereo not drawn)	> 100	94.9	> 100	78.1	> 100	> 100	53					
NC1=CN2c3ccccc3N(CC(=O)N3CCOCC3)C2C=C1 (stereo not drawn)	> 100	> 100	> 100	> 100	> 100	> 100	> 100					
O=C(CSCC(=O)N/N=C/c1ccc(F)cc1)N/N=C/c1ccc(F)cc1	> 100	> 100	> 100	> 100	> 100	> 100	> 100					
O=C1OS2(OC(=O)c3cccc4cccc2c34)c2ccccc21 (stereo not drawn)	> 100	> 100	> 100		> 100	> 100	> 100					
C/C(=C/CC[C@](C)(OC1OC(CO)C(O)C(O)C1OC1OC(C)C(O)C(O)C1O)[C@H]1CC[C@]2(C)[C@@H]1CC[C@@H]1[C@@]3(C)CC[C@H](O)C(C)(C)[C@@H]3C[C@H](O)[C@]12C)CO (stereo partly drawn)		> 100	> 100	> 100	> 100	> 100	> 100					
NC(=O)c1ccc(N)nc1	> 400	> 400	> 400	> 125	> 400	> 400	0.864					
COc1cc2[nH]c(=O)[nH]c2c2c(C)c[nH]c12	> 100	> 100	> 100	> 100	> 100	> 100	> 100					
C=CCn1c(-c2ccc(N=NNc3ccc(-c4n[nH]c(=S)n4CC=C)cc3)cc2)n[nH]c1=S	> 100	6.35	> 100	10.8	4.76	3.97	37.8					
C(=C/c1ccc2nc(-c3ccc(/C=C/C=N/NC4=NCCCN4)cc3)cn2c1)/C=N/NC1=NCCCN1	> 100	> 100	67.4	> 100	> 100	> 100	48.6					
COC12OC3(C4OC41)C(C(=O)O[C@H]3CO[Si](C)(C)C(C)(C)C)C2S(=O)(=O)c1ccccc1 (stereo partly drawn)	> 100		> 90.2		> 100	> 5.18						
O=C(NCCc1ccc(F)cc1)c1cc(/C=C/c2cc(O)ccc2O)ccc1O	6.32	12	10.9	14.4	5.28	3.07	4.4					
CC(CCC(=O)O)(c1cc(Br)c(O)c(Br)c1)c1cc(Br)c(O)c(Br)c1	> 100	> 100	> 100	> 100	> 100	> 100	> 100					
CN(C)CCNc1ccccn1	> 100	> 100	> 100		> 100	> 100	> 100					
CC(C)CC(NC(=O)C(CCC(=O)OCc1ccccc1)NC(=O)OC(C)(C)C)C(=O)NC(COCc1ccccc1)C(=O)NC(Cc1ccccc1)C(=O)O (stereo not drawn) (Boc-E(OBn)LS(Bn)F-OH; configuration not given here)	> 100		> 100	> 100		> 100	> 100					
O=c1[nH]c(=O)n(COCCO)cc1-c1ccccc1	> 100	> 100	> 100		> 100	> 100						
C/C(=N\NC(=S)N/N=C(\C)c1ccccn1)c1ccccn1	> 100	> 100	> 100	> 100	> 100	5.31						
Clc1ccc2nc3c(c(-c4ccccc4)nn3-c3ccccc3)c(-c3ccccc3)c2c1	> 100	> 100	> 100	> 100	> 100	> 100						
O=C(/C=C/c1ccco1)c1ccc(Nc2ccnc3cc(Cl)ccc23)cc1		> 100	41.3	> 100	> 100		> 100	39.9	4.99	20.9	> 100	82.2
CCOC(=O)C(NC(=O)Nc1ccccc1)(Nc1cccc(Cl)c1)C(F)(F)F (stereo not drawn)	> 100		> 100	> 100	> 100	> 100	> 100					
Oc1cccc(-c2cc(=S)ss2)c1	31.4	40.6	28.3			28.5	40.5					
COc1cc(CNc2nc3cc(C(F)(F)F)ccc3nc2C(=O)O)cc(OC)c1OC	> 100		57.9	74.7	83.8	39.4	> 100					
O=C(OCc1ccccc1[N+](=O)[O-])N1c2ccccc2[C@@]23O[C@]24CCC[C@H]3C#C/C=C\C#C[C@H]14	> 100	> 100	> 100		> 100	> 100	> 100					
CN(CCN(C)Cc1ccc(Cl)c(Cl)c1)CCN1CCCC1	> 100	> 100	> 100	> 90.5	> 100	36	99.9					
COC(=O)c1ccc2c(c1)CC1(C2)Cc2ccc3c(c2C1)CCC3 (stereo not drawn)	> 100	> 100	51.9	> 100	69.1		> 100					
Cc1cc([C@H](C#N)c2nc3ccccc3s2)nc(Cl)n1	16.3	> 100	> 100	6.54	31.6	21.3	> 100					
O=C(O)C(C1NCCS1)N1Cc2ccccc2C1 (stereo not drawn)	> 100	> 100	> 100	> 100	> 100	> 100	> 100					
